Results reported in patent US10246712B2, “Genetic or pharmacological reduction of PERK enhances cortical- and hippocampus-dependent cognitive function” (Carmel-Haifa University Economic Corp. Ltd, priority 2015, dated 2019).

Columns and labels:
[1] = system: p-eIF2α; test: Immunoblot of p-eIF2α levels in rat insular cortex (IC); type: in vivo; conditions: 1 μl, 100 nM stereotactic injection to the IC, compared to vehicle; n=15; data not shown
Protocol: For virus infusions, rats were first anesthetized with Ketamine (120 mg/kg) and Xylazine (6 mg/kg) and placed into a stereotactic frame (Steolting Europe, Dublin—Ireland) (Using a 32-gauge stainless steel injector attached to a stereotactic infusion pump, rats received 1 μl of lentivirus encoding PERK shRNA or lentivirus harboring a scrambled sequence over 10 min into the insular cortex (anteroposterior, +1.2 mm relative to bregma; lateral, ±5.5 mm; ventral, −6.0 mm) according to the atlas of Paxinos, G. & Watson, C. (2006). The injector was lets in place for 5 min before and after infusion to minimize fluid retraction. The rats were allowed at least 7 days to recover from the surgery before any behavior experiments were conducted.
The rats were cannulated as described in Barki-Harrington et al. (2009). Briefly, the rats were anesthetized by administration of equithesin (0.3 ml/100 g), comprising 2.12% (w/v) MgSO4, 10% (v/v) ethanol, 39.1% (v/v) propyleneglycol, 0.98% (w/v) sodium pentobarbital, and 4.2% (w/v) chloral hydrate. […]
(§1) At the end of the behavioral procedure, the brains were removed, and snap-frozen in liquid nitrogen. […] Protein content was determined with the BCA Protein Assay Kit (GE Healthcare). […]

[2] = system: ATF4; test: Immunoblot of ATF4 protein levels in rat insular cortex (IC); type: in vivo; conditions: 1 μl, 100 nM injection to the IC; n=16; data not shown
Protocol: The rats were cannulated as described in Barki-Harrington et al. (2009). Briefly, the rats were anesthetized by administration of equithesin (0.3 ml/100 g), comprising 2.12% (w/v) MgSO4, 10% (v/v) ethanol, 39.1% (v/v) propyleneglycol, 0.98% (w/v) sodium pentobarbital, and 4.2% (w/v) chloral hydrate. They were restrained in a stereotactic frame (Steolting Europe, Dublin-Ireland) and stainless steel guide cannulae (23-gauge) were bilaterally implanted into the insular cortex, angled at (with reference to bregma), anteroposterior=+1.2 mm, lateral±5.5 mm, and ventral 5.0 mm (1 mm ahead of injecting cannula). Two skull screws were inserted into the skull, and acrylic dental cement was applied to secure the cannulae in position. […]
as §1
Samples were prepared in SDS sample buffer, subjected to 7.5-10% SDS-PAGE and Western blot analysis. […] The immunoblots were quantified with a CCD camera and Quantity One software (Bio-Rad, USA). Each sample was measured relative to the background. Phosphorylation levels were calculated as the ratio between chemiluminescence values of the antibody directed against the phosphoproteins and those of the antibody directed against the phosphorylation state independent forms of the proteins.

[3] = system: p-eIF2α; test: Immunoblot of p-eIF2α levels in CA1 punches; type: in vivo, mouse; conditions: CA1 punches after 100 nM infusion into CA1, adult mice; vs vehicle

Cn1cc(-c2ccc3c(c2)CCN3C(=O)Cc2cccc(C(F)(F)F)c2)c2c(N)ncnc21 [GSK2606414, 7-methyl-5-(1-{[3-(trifluoromethyl)phenyl]acetyl}-2,3-dihydro-1H-indol-5-yl)-7H-pyrrolo[2,3-d]pyrimidin-4-amine]
reduction in p-eIF2α levels [1]: 40% | reduction in ATF4 protein levels [2]: 30% | p-eIF2α levels [3]: significant reduction
